In PubChem BioAssay AID1755 (Sanford-Burnham Center for Chemical Genomics, 2009) one finds IC50 data, which are given here for eight compounds.

Several values for one entry are separate records, joined by “and”; a condition that tells them apart may be missing. Equal entries are not always repeated. Activity calls are given as the source filed them. No rule for the calls is given here. Bounds are passed on as bounds.

The subject of the assay is MDA-MB-435 TRAIL-induced apoptosis potentiation, viability. The experiment in a line: MDA-MB-435 TRAIL sensitizers, potency – cell-based, analog series, SAR follow-up (AID 1755).

The term IC50 denotes the concentration that gives 50% inhibition. Turning to `CCSc1cc(N2CCCC2)nc(-c2ccc(Cl)cc2)n1`, the IC50 is > 10 µM (inactive). The result for `CSc1nc(-c2ccccc2)nc(C(C)C)n1` reads > 10 µM (inactive). The result for `COc1cc(-c2ccccc2)[nH]c(=S)n1` reads > 10 µM (inactive); that for `CCSc1nc(-c2ccccc2)cc(=O)[nH]1`, > 10 µM (inactive); that for `CSc1nc(-c2ccccc2)nc(-c2ccccc2)n1`, > 10 µM (inactive). On to `CSc1nc(-c2ccc(C)cc2)nc(C(Cl)Cl)n1`, for which the concentration for half-maximal inhibition (IC50) is 4.81 µM and 3.27 µM. Then `CSc1nc(-c2ccccc2)nc(-c2ccccc2OC(C)=O)n1`, with > 10 µM (inactive); and `CC(Sc1nc(-c2ccccc2)cc(C(F)(F)F)n1)C(=O)N1CCCC1` (stereo not drawn), with > 10 µM (inactive).
